According to US12714696B2, “Low dose fluralaner compositions for protection against parasitic invertebrate pest” (VIRBAC, priority 2019, dated 2026):
Read-outs that look alike come from different tables or passages of the source.

Assays:
R. sanguineus ticks = experiment: Acaricidal efficacy on dogs, oral 35 μg/kg study; assay type: in vivo; settings: 48 h after the last of four doses of 35 μg/kg per day
Method: The second objective was to investigate the pharmacodynamics between the fluralaner plasmatic dose and the effectiveness against fleas. • IVP: Investigational Veterinary Product, is pure Fluralaner+DMSO (35 μg/kg on Days 0 to 3 (0.35 mL/kg)) • Control product is DMSO (0.35 mL/kg on Days 0 to 3)
On Days 0, 1, 2 and 3, all dogs assigned to group 2 received the Investigational Veterinary Product. On Days 0 to 3 all dogs in group 1 received the control product at a volume equal to the dogs in group 2. Dogs assigned to group 1 received the control product and served as Placebo controls. The quantity of Investigational Veterinary Product and control product administered was calculated according to the dog's individual body weight measured on Day −1.
Dogs were infested with approximately 100 (±8) viable, adult, C. felis fleas on Day −6 for randomisation purposes and on Days 1, 2 and 3 to assess efficacy. Fleas were removed and counted on Days −5, 2, 3 and 4 (24 hours±2 hours after infestation). Dogs were also infested with approximately 50 (±4) viable, adult, unfed R. sanguineus ticks on Day 4 to assess acaricidal efficacy. Ticks will be removed and counted on Day 5 (24 hours±2 hours after infestation).
The efficacy against ticks and fleas were calculated for the study groups at each assessment day according to the formulas given below. […]

[1] = cited from earlier work
[2] = Adverse event observation, oral study against ticks; assay type: in vivo, beagle dogs; settings: oral 250/35/600 μg/kg regimen, dogs
Method: Dogs assigned to group 1 received the control product and served as Placebo controls. Dogs were observed hourly±15 minutes for four hours after administration on Day 0 and once daily two hours±15 minutes after Investigational Veterinary Product or control product administration on Days 1, 2 and 3. Observations were conducted for each individual dog.

[3] = cited from earlier work; remark: listed apart in the source
Rhipicephalus sanguineus = experiment: Efficacy against ticks on dogs, oral 250/35/600 μg/kg study; assay type: in vivo; settings: for Percentage efficacy using geometric mean, live ticks / live ticks, geometric mean, Group 2: oral 250/35/600 μg/kg regimen, dogs
Method: The second objective is to investigate the pharmacodynamics between the fluralaner plasmatic dose and the effectiveness against ticks. • IVP: Investigational Veterinary Product, is pure Fluralaner+DMSO (250 μg/kg on Days 0 to 3 (0.25 mL/kg), then 35 μg/kg on Days 4 to 9 (0.35 mL/kg), then 600 μg/kg on Day 11) • Control product is DMSO (0.25 mL/kg on Days 0 to 3, then 0.35 mL/kg on Days 4 to 9)
Dogs were infested with approximately 50 (±4) viable, adult, unfed R. sanguineus ticks on Days 1, 3, 5, 8, 10, 12, 16, 22, 26 and 30 to assess efficacy. Ticks will be removed and counted on Days 3, 5, 7 (48 hours±2 hours after infestation) and 9, 11, 13, 17, […], 27, 32 (24 hours±2 hours after infestation). Dogs were also infested with approximately 100 (±8) viable, adult, C. felis fleas on Day −6 (±1 day) for randomisation purposes and on Day 2 to assess efficacy. Fleas will be removed and counted on Days −5 (+1 day) and 3 (24 hours±2 hours after infestation).
The efficacy against ticks and fleas were calculated for the study groups at each assessment day according to the formulas given below.
Efficacy calculations based on geometric mean values were, however, also reported on. Such calculations were based on the geometric mean values of the tick or flea (count+1) data. One (1) was subsequently subtracted from the result to obtain a meaningful value for the geometric mean of each group.
Efficacy was calculated as follows: Efficacy (%)=100×(Mc−Mt)/Mc, where: • Mc=Mean number of live ticks (categories 1 to 2) or live fleas on dogs in the negative control group (group 1) at a specific time point. • Mt=Mean number of live ticks (categories 1 to 2) or live fleas on dogs in the IVP group (group 2) • at a specific time point.

[4] = Intravenous 12.5 mg/kg, single, dogs, n = 6, mean ± standard deviation
[5] = Oral 12.5 mg/kg, single, dogs, n = 6, mean ± standard deviation
[6] = Oral 25.0 mg/kg, single, dogs, n = 6, mean ± standard deviation
[7] = Oral 50.0 mg/kg, single, dogs, n = 6, mean ± standard deviation
[8] = literature data (Table 6; equals Oral 50.0 mg/kg of Table 5)

SMILES: Cc1cc(C2=NOC(c3cc(Cl)cc(Cl)c3)(C(F)(F)F)C2)ccc1C(=O)NCC(=O)NCC(F)(F)F (centres unmarked) [fluralaner, Fluralaner]
- efficacy against ticks (R. sanguineus ticks): 40.4%
- AUC(0-d112) [1, 4]: 87198 ± 11835 ng·days/mL
- AUC(0→∞) [1, 4]: 87779 ± 12004 ng·days/mL
- Cl [1, 4]: 5.83 ± 0.83 mL/h/kg
- Cmax [1, 4]: 7109 ± 908 ng/mL
- MRT [1, 4]: 20 ± 3 days
- Vz [1, 4]: 3.1 ± 0.5 L/kg
- t1/2 [1, 4]: 15 ± 2 days
- tmax ([1]; Oral 12.5 mg/kg, single, dogs, n = 6, Median): 1 (range 0.08-2) day
- AUC(0-d112) [1, 5]: 29665 ± 13858 ng·days/mL
- AUC(0→∞) [1, 5]: 29922 ± 13808 ng·days/mL
- Cmax [1, 5]: 2144 ± 860 ng/mL
- MRT [1, 5]: 19 ± 2 days
- t1/2 [1, 5]: 13 ± 1 days
- tmax ([1]; Oral 25.0 mg/kg, single, dogs, n = 6, Median): 1 (range 1-2) day
- AUC(0-d112) [1, 6]: 46115 ± 18932 ng·days/mL
- AUC(0→∞) [1, 6]: 46416 ± 18929 ng·days/mL
- Cmax [1, 6]: 3948 ± 1734 ng/mL
- MRT [1, 6]: 15 ± 4 days
- t1/2 [1, 6]: 12 ± 3 days
- tmax ([1]; Oral 50.0 mg/kg, single, dogs, n = 6, Median): 1 (range 0.17-3) day
- AUC(0-d112) [1, 7]: 70171 ± 26412 ng·days/mL
- AUC(0→∞) [1, 7]: 70531 ± 26529 ng·days/mL
- Cmax [1, 7]: 5419 ± 2086 ng/mL
- MRT [1, 7]: 17 ± 3 days
- t1/2 [1, 7]: 14 ± 1 days
- AUCtot [1, 8]: 70531 µg·days/L
- Cmax [1, 8]: 5419 ng/mL
- t1/2 [1, 8]: 14 days
- tmax [1, 8]: 1 days
- Adverse Events as a result of the product [2]: No Adverse Events
- hepatic clearance ([3]; dogs and cats): low hepatic clearance
- AUC in cats relative to dogs ([3]; topical and iv, 12.5 to 50 mg/kg dogs, 20 to 80 mg/kg cats): about half the AUC in dogs
- Percentage efficacy using geometric mean, live ticks (Rhipicephalus sanguineus; Day 3): 100
- live ticks, geometric mean, Group 2 (Rhipicephalus sanguineus; Day 3): 0.0
- Percentage efficacy using geometric mean, live ticks (Rhipicephalus sanguineus; Day 5): 100
- live ticks, geometric mean, Group 2 (Rhipicephalus sanguineus; Day 5): 0.0
- Percentage efficacy using geometric mean, live ticks (Rhipicephalus sanguineus; Day 7): 100
- live ticks, geometric mean, Group 2 (Rhipicephalus sanguineus; Day 7): 0.0
- Percentage efficacy using geometric mean, live ticks (Rhipicephalus sanguineus; Day 9): 47.3
- live ticks, geometric mean, Group 2 (Rhipicephalus sanguineus; Day 9): 11.8
- Percentage efficacy using geometric mean, live ticks (Rhipicephalus sanguineus; Day 11): 77.8
- live ticks, geometric mean, Group 2 (Rhipicephalus sanguineus; Day 11): 7.8
- Percentage efficacy using geometric mean, live ticks (Rhipicephalus sanguineus; Day 13): 85.0
- live ticks, geometric mean, Group 2 (Rhipicephalus sanguineus; Day 13): 4.5
- Percentage efficacy using geometric mean, live ticks (Rhipicephalus sanguineus; Day 17): 80.8
- live ticks, geometric mean, Group 2 (Rhipicephalus sanguineus; Day 17): 5.1
- Percentage efficacy using geometric mean, live ticks (Rhipicephalus sanguineus; Day 23): 46.1
- Percentage efficacy using geometric mean, live ticks (Rhipicephalus sanguineus; Day 27): 78.9
- live ticks, geometric mean, Group 2 (Rhipicephalus sanguineus; Day 27): 6.8
- Percentage efficacy using geometric mean, live ticks (Rhipicephalus sanguineus; Day 31): 56.1
- efficacy against ticks from the first day after treatment (Rhipicephalus sanguineus; infestation at D1, first measurement at D3): present
- efficacy against ticks (Rhipicephalus sanguineus; period during the first four doses of 250 μg/kg per day and the following three doses of 35 μg/kg per day): 100%
